Assay results as given in patent publication US5807535A, “Metal complexes of hydroxyaryl containing aminocarboxylic acid chelating agents” (Australian Nuclear Science & Technology Organisation, priority 1992, dated 1998).
Like-named read-outs stand apart in the source and are kept apart here.

Test: Biodistribution of 99mTc complexes in rats
Type: in vivo, Australian Albino Wistar Rats
Settings: for tissue uptake at 0.5 min / tissue uptake at 1 min / tissue uptake at 0.05 h / tissue uptake at 5 min / tissue uptake at 10 min: rat; for tissue uptake at 0.5 min: 30 sec
Experimental: A typical method of radiolabelling of the chelator was achieved by dissolving the chelator in a basic solution of saline. The pH was then adjusted to approx. 6 with HCl. Excess stannous chloride was added to the resultant solution followed by one equivalent volume of sodium ^99m TcO4 (10-50 mCi/ml). Final concentration of the chelator was approx. 1 mg/ml. The efficacy of labelling was determined by ITLC-SG. For each product only one main radiochemical species was observed. Each complex was diluted to 15 μCi/100 μl with saline. […] (See FIGS. 1A and 1B).
Selected data from biodistribution results of technetium-99m complexes of No. 1, No. 2 and No 4 in the liver, kidney and blood at 3 minutes is tabulated below.

[1] = blood, rats, read-out: biodistribution blood
[2] = bone, rats, read-out: biodistribution bone
[3] = brain, rats, read-out: biodistribution brain
[4] = eyes, rats, read-out: biodistribution eyes
[5] = heart, rats, read-out: biodistribution heart
[6] = kidneys, rats, read-out: biodistribution kidneys
[7] = liver, rats, read-out: biodistribution liver
[8] = lungs, rats, read-out: biodistribution lungs
[9] = muscle, rats, read-out: biodistribution muscle
[10] = pancreas, rats, read-out: biodistribution pancreas
[11] = skin, rats, read-out: biodistribution skin
[12] = spleen, rats, read-out: biodistribution spleen
[13] = stomach, rats, read-out: biodistribution stomach
[14] = tail, rats, read-out: biodistribution tail
[15] = thymus, rats, read-out: biodistribution thymus
[16] = thyroid, rats, read-out: biodistribution thyroid
[17] = total git, rats, read-out: biodistribution tot GIT

CC(C)(C)c1ccc(O)c(NC(=O)CN(CCN(CC(=O)O)CC(=O)Nc2cc(C(C)(C)C)ccc2O)CC(=O)O)c1 [Compound 4]
hepatobiliary passage (Tables 2 and 4): specifically traverse the hepatobiliary system
tissue uptake at 0.5 min [1]: 5.84 %ID/g
tissue uptake at 1 min [1]: 3.96 %ID/g
tissue uptake at 0.05 h (blood, rats, 3 minutes, selected data, read-out: Blood): 1.71 %ID/g
tissue uptake at 5 min [1]: 1.33 %ID/g
tissue uptake at 10 min [1]: 0.99 %ID/g
tissue uptake at 0.5 min [2]: 0.61 %ID/g
tissue uptake at 1 min [2]: 0.54 %ID/g
tissue uptake at 0.05 h (bone, rats, 3 min, read-out: biodistribution bone): 0.32 %ID/g
tissue uptake at 5 min [2]: 0.26 %ID/g
tissue uptake at 10 min [2]: 0.19 %ID/g
tissue uptake at 0.5 min [3]: 0.43 %ID/g
tissue uptake at 1 min [3]: 0.26 %ID/g
tissue uptake at 0.05 h (brain, rats, 3 min, read-out: biodistribution brain): 0.12 %ID/g
tissue uptake at 5 min [3]: 0.08 %ID/g
tissue uptake at 10 min [3]: 0.06 %ID/g
tissue uptake at 0.5 min [4]: 0.22 %ID/g
tissue uptake at 1 min [4]: 0.19 %ID/g
tissue uptake at 0.05 h (eyes, rats, 3 min, read-out: biodistribution eyes): 0.15 %ID/g
tissue uptake at 5 min [4]: 0.13 %ID/g
tissue uptake at 10 min [4]: 0.16 %ID/g
tissue uptake at 0.5 min [5]: 1.78 %ID/g
tissue uptake at 1 min [5]: 1.26 %ID/g
tissue uptake at 0.05 h (heart, rats, 3 min, read-out: biodistribution heart): 0.65 %ID/g
tissue uptake at 5 min [5]: 0.48 %ID/g
tissue uptake at 10 min [5]: 0.36 %ID/g
tissue uptake at 0.05 h (kidney, rats, 3 minutes, selected data, read-out: Kidney): 4.54 %ID/g
tissue uptake at 0.5 min [6]: 5.57 %ID/g
tissue uptake at 1 min [6]: 4.86 %ID/g
tissue uptake at 0.05 h (kidneys, rats, 3 min, read-out: biodistribution kidneys): 4.54 %ID/g
tissue uptake at 5 min [6]: 3.89 %ID/g
tissue uptake at 10 min [6]: 2.33 %ID/g
tissue uptake at 0.5 min [7]: 6.83 %ID/g
tissue uptake at 1 min [7]: 8.03 %ID/g
tissue uptake at 0.05 h (liver, rats, 3 minutes, selected data, read-out: Liver): 7.89 %ID/g
tissue uptake at 5 min [7]: 7.39 %ID/g
tissue uptake at 10 min [7]: 4.9 %ID/g
tissue uptake at 0.5 min [8]: 2.37 %ID/g
tissue uptake at 1 min [8]: 1.67 %ID/g
tissue uptake at 0.05 h (lungs, rats, 3 min, read-out: biodistribution lungs): 1 %ID/g
tissue uptake at 5 min [8]: 0.66 %ID/g
tissue uptake at 10 min [8]: 0.53 %ID/g
tissue uptake at 0.5 min [9]: 0.36 %ID/g
tissue uptake at 1 min [9]: 0.29 %ID/g
tissue uptake at 0.05 h (muscle, rats, 3 min, read-out: biodistribution muscle): 0.22 %ID/g
tissue uptake at 5 min [9]: 0.18 %ID/g
tissue uptake at 10 min [9]: 0.13 %ID/g
tissue uptake at 0.5 min [10]: 0.9 %ID/g
tissue uptake at 1 min [10]: 0.69 %ID/g
tissue uptake at 0.05 h (pancreas, rats, 3 min, read-out: biodistribution pancreas): 0.55 %ID/g
tissue uptake at 5 min [10]: 0.32 %ID/g
tissue uptake at 10 min [10]: 0.39 %ID/g
tissue uptake at 0.5 min [11]: 0.53 %ID/g
tissue uptake at 1 min [11]: 0.51 %ID/g
tissue uptake at 0.05 h (skin, rats, 3 min, read-out: biodistribution skin): 0.46 %ID/g
tissue uptake at 5 min [11]: 0.37 %ID/g
tissue uptake at 10 min [11]: 0.36 %ID/g
tissue uptake at 0.5 min [12]: 0.93 %ID/g
tissue uptake at 1 min [12]: 0.8 %ID/g
tissue uptake at 0.05 h (spleen, rats, 3 min, read-out: biodistribution spleen): 0.42 %ID/g
tissue uptake at 5 min [12]: 0.32 %ID/g
tissue uptake at 10 min [12]: 0.27 %ID/g
tissue uptake at 0.5 min [13]: 1.04 %ID/g
tissue uptake at 1 min [13]: 0.95 %ID/g
tissue uptake at 0.05 h (stomach, rats, 3 min, read-out: biodistribution stomach): 3.09 %ID/g
tissue uptake at 5 min [13]: 2.71 %ID/g
tissue uptake at 10 min [13]: 3.8 %ID/g
tissue uptake at 0.5 min [14]: 1.03 %ID/g
tissue uptake at 1 min [14]: 0.53 %ID/g
tissue uptake at 0.05 h (tail, rats, 3 min, read-out: biodistribution tail): 0.39 %ID/g
tissue uptake at 5 min [14]: 1.23 %ID/g
tissue uptake at 10 min [14]: 0.32 %ID/g
tissue uptake at 0.5 min [15]: 0.66 %ID/g
tissue uptake at 1 min [15]: 0.49 %ID/g
tissue uptake at 0.05 h (thymus, rats, 3 min, read-out: biodistribution thymus): 0.31 %ID/g
tissue uptake at 5 min [15]: 0.22 %ID/g
tissue uptake at 10 min [15]: 0.19 %ID/g
tissue uptake at 0.5 min [16]: 3.49 %ID/g
tissue uptake at 1 min [16]: 2.28 %ID/g
tissue uptake at 0.05 h (thyroid, rats, 3 min, read-out: biodistribution thyroid): 1.11 %ID/g
tissue uptake at 5 min [16]: 0.89 %ID/g
tissue uptake at 10 min [16]: 0.79 %ID/g
tissue uptake at 0.5 min [17]: 0.61 %ID/g
tissue uptake at 1 min [17]: 0.74 %ID/g
tissue uptake at 0.05 h (total git, rats, 3 min, read-out: biodistribution tot GIT): 1.59 %ID/g
tissue uptake at 5 min [17]: 2.62 %ID/g
tissue uptake at 10 min [17]: 5.16 %ID/g
tissue uptake at 10 min (urine, rats, read-out: biodistribution urine): 0.08 %ID/g
liver versus kidney uptake (rats): preference for the liver uptake as opposed to the kidney
biodistribution blood (rats, 3 min): 1.71 % Injected dose per gram
biodistribution liver (rats, 3 min): 7.89 % Injected dose per gram
